Among the data in patent publication US20220112233A1, “METHOD FOR PRODUCING PEPTIDE COMPOUND, PROTECTIVE GROUP-FORMING REAGENT, AND CONDENSED POLYCYCLIC AROMATIC HYDROCARBON COMPOUND” (FUJIFILM CORPORATION, priority 2019, published 2022) are Solution stability values, retold here.

The nature of this data set: Solution stability of N-protected and C-protected amino acid. Format: physicochemical. The following applies: N-protected and C-protected amino acid (Fmoc-Leu condensed with the listed compound) in tetrahydrofuran and acetic acid, room temperature, three days; amount remaining (survival rate). On the procedure: The obtained N-protected and C-protected amino acid (10 mg) and 2,6-di-tert-butyl-4-methylphenol (internal standard: 8 mg) were dissolved in a tetrahydrofuran solution (20 mL) and acetic acid (2 mL), respectively, and after allowing time to pass at room temperature for three days, the amount of remaining N-protected and C-protected amino acid was determined and evaluated based on the following standard.
Regarding the evaluation of the solution stability, a case of “B” or higher was regarded as acceptable.
It can be said that, as the solution stability is higher, peptide stability is high, side reactions can be suppressed, and yield is excellent.
—Evaluation Standard— • “A”: survival rate was 99% or more. • “B”: survival rate was 97% or more and less than 99%. • “C”: survival rate was 95% or more and less than 97%. • “D”: survival rate was less than 95%.

Turning to `CCCCCCCCCCCCCCCCCCCCCCOc1ccc(C(O)c2ccc(OCCCCCCCCCCCCCCCCCCCCCC)cc2)cc1` [Comparative compound (1-1)], the Solution stability result was “C (survival rate was 95% or more and less than 97%)”.
Under `CCCCCCCCCCCCCCCCCCCCCCOc1cc(COc2ccc3cc(C(O)c4ccc(OC)cc4)ccc3c2)cc(OCCCCCCCCCCCCCCCCCCCCCC)c1` (centres unmarked) [Compound (1-2)] stands “A (survival rate was 99% or more)”.
